Source: the NIST ThermoML archive (doi:10.1021/je034290l)
Numbers after ± are expanded uncertainties.

Columns and labels:
[1] = excess molar enthalpy (molar enthalpy of mixing); xn = mol fraction of the nth substance listed; details: 101.32 kPa, Liquid, Calvet calorimetry
[2] = xn = mol fraction of the nth substance listed; details: 101.32 kPa, Liquid

COC(C)=O [methyl ethanoate] + CC(C)(C)O
Details | excess molar enthalpy [kcal/mol] | excess molar volume [m3/mol]
[1], 299.15 K, x1 = 0.0671 | 0.126 ± 0.00167 | –
[1], 299.15 K, x1 = 0.1369 | 0.238 ± 0.00311 | –
[1], 299.15 K, x1 = 0.2113 | 0.341 ± 0.0043 | –
[1], 299.15 K, x1 = 0.2812 | 0.417 ± 0.00526 | –
[1], 299.15 K, x1 = 0.3492 | 0.472 ± 0.00598 | –
[1], 299.15 K, x1 = 0.4106 | 0.504 ± 0.00621 | –
[1], 299.15 K, x1 = 0.4675 | 0.519 ± 0.00645 | –
[1], 299.15 K, x1 = 0.4928 | 0.522 ± 0.00645 | –
[1], 299.15 K, x1 = 0.5304 | 0.524 ± 0.00645 | –
[1], 299.15 K, x1 = 0.5753 | 0.517 ± 0.00645 | –
[1], 299.15 K, x1 = 0.6226 | 0.5 ± 0.00621 | –
[1], 299.15 K, x1 = 0.6741 | 0.47 ± 0.00598 | –
[1], 299.15 K, x1 = 0.7293 | 0.427 ± 0.00526 | –
[1], 299.15 K, x1 = 0.7866 | 0.368 ± 0.00454 | –
[1], 299.15 K, x1 = 0.8439 | 0.292 ± 0.00359 | –
[1], 299.15 K, x1 = 0.9019 | 0.201 ± 0.00263 | –
[1], 299.15 K, x1 = 0.9551 | 0.107 ± 0.00141 | –
[1], 318.15 K, x1 = 0.071 | 0.113 ± 0.00151 | –
[1], 318.15 K, x1 = 0.1469 | 0.216 ± 0.00263 | –
[1], 318.15 K, x1 = 0.2304 | 0.311 ± 0.00382 | –
[1], 318.15 K, x1 = 0.3022 | 0.382 ± 0.00478 | –
[1], 318.15 K, x1 = 0.3713 | 0.434 ± 0.0055 | –
[1], 318.15 K, x1 = 0.4322 | 0.471 ± 0.00598 | –
[1], 318.15 K, x1 = 0.4898 | 0.49 ± 0.00598 | –
[1], 318.15 K, x1 = 0.5407 | 0.492 ± 0.00621 | –
[1], 318.15 K, x1 = 0.5865 | 0.485 ± 0.00598 | –
[1], 318.15 K, x1 = 0.6105 | 0.475 ± 0.00598 | –
[1], 318.15 K, x1 = 0.6585 | 0.451 ± 0.00574 | –
[1], 318.15 K, x1 = 0.711 | 0.414 ± 0.00526 | –
[1], 318.15 K, x1 = 0.7628 | 0.367 ± 0.00454 | –
[1], 318.15 K, x1 = 0.817 | 0.308 ± 0.00382 | –
[1], 318.15 K, x1 = 0.8636 | 0.242 ± 0.00311 | –
[1], 318.15 K, x1 = 0.9085 | 0.174 ± 0.00237 | –
[1], 318.15 K, x1 = 0.9567 | 0.0889 ± 0.00148 | –
[2], 303.15 K, x1 = 0.0451 | – | 1.65e-07 ± 1.6e-08
[2], 303.15 K, x1 = 0.0901 | – | 3.35e-07 ± 1.7e-08
[2], 303.15 K, x1 = 0.1537 | – | 5.06e-07 ± 1.8e-08
[2], 303.15 K, x1 = 0.1973 | – | 6.07e-07 ± 1.8e-08
[2], 303.15 K, x1 = 0.2481 | – | 7.02e-07 ± 1.9e-08
[2], 303.15 K, x1 = 0.2631 | – | 7.32e-07 ± 1.9e-08
[2], 303.15 K, x1 = 0.3042 | – | 8.09e-07 ± 1.9e-08
[2], 303.15 K, x1 = 0.3448 | – | 8.49e-07 ± 1.9e-08
[2], 303.15 K, x1 = 0.3957 | – | 8.87e-07 ± 2e-08
[2], 303.15 K, x1 = 0.4411 | – | 9.04e-07 ± 2e-08
[2], 303.15 K, x1 = 0.4445 | – | 8.99e-07 ± 2e-08
[2], 303.15 K, x1 = 0.4964 | – | 8.92e-07 ± 2e-08
[2], 303.15 K, x1 = 0.5515 | – | 8.74e-07 ± 2e-08
[2], 303.15 K, x1 = 0.5677 | – | 8.68e-07 ± 2e-08
[2], 303.15 K, x1 = 0.5954 | – | 8.5e-07 ± 1.9e-08
[2], 303.15 K, x1 = 0.6467 | – | 7.94e-07 ± 1.9e-08
[2], 303.15 K, x1 = 0.6956 | – | 7.42e-07 ± 1.9e-08
[2], 303.15 K, x1 = 0.7432 | – | 6.59e-07 ± 1.9e-08
[2], 303.15 K, x1 = 0.8016 | – | 5.54e-07 ± 1.8e-08
[2], 303.15 K, x1 = 0.8477 | – | 4.63e-07 ± 1.8e-08
[2], 303.15 K, x1 = 0.9067 | – | 3.28e-07 ± 1.7e-08
[2], 303.15 K, x1 = 0.9465 | – | 2.17e-07 ± 1.7e-08
[2], 318.15 K, x1 = 0.102 | – | 3.93e-07 ± 1.7e-08
[2], 318.15 K, x1 = 0.165 | – | 5.61e-07 ± 1.8e-08
[2], 318.15 K, x1 = 0.2168 | – | 6.84e-07 ± 1.9e-08
[2], 318.15 K, x1 = 0.2804 | – | 7.71e-07 ± 1.9e-08
[2], 318.15 K, x1 = 0.349 | – | 8.76e-07 ± 2e-08
[2], 318.15 K, x1 = 0.4031 | – | 9.16e-07 ± 2e-08
[2], 318.15 K, x1 = 0.4596 | – | 9.41e-07 ± 2e-08
[2], 318.15 K, x1 = 0.5227 | – | 9.15e-07 ± 2e-08
[2], 318.15 K, x1 = 0.5784 | – | 8.91e-07 ± 2e-08
[2], 318.15 K, x1 = 0.6398 | – | 8.5e-07 ± 1.9e-08
[2], 318.15 K, x1 = 0.6786 | – | 8.06e-07 ± 1.9e-08
[2], 318.15 K, x1 = 0.7422 | – | 7.18e-07 ± 1.9e-08
[2], 318.15 K, x1 = 0.7969 | – | 5.7e-07 ± 1.8e-08
[2], 318.15 K, x1 = 0.8256 | – | 5.31e-07 ± 1.8e-08
[2], 318.15 K, x1 = 0.9077 | – | 3.01e-07 ± 1.7e-08
[2], 318.15 K, x1 = 0.9496 | – | 1.86e-07 ± 1.6e-08
